Each structure is given as a SMILES string.

The test system of one series is PC12 cells. In words: Cell viability, CCK8 method. Particulars: 24 h, CCK8, tested 37.5 to 1,200.0 μM. It is filed as cell-based, Rat. As to the method:
Rat PC12 pheochromocytoma cells were obtained from the Cell Resource Center, Peking Union Medical College. PC12 cells were grown as monolayers in tissue culture flasks at 37°C under a humidified, 5% CO2 atmosphere in the high–glucose Dulbecco’s Modified Eagle Medium (DMEM) medium.
The CCK8 (MedChemExpress, United States) method was used to estimate the cytotoxic effects of POC. Before treatment, the cells were seeded onto 96-well culture plates at an appropriate density according to the experimental protocol. After 24 h, the medium was replaced with fresh medium containing varying concentrations (37.5, 75.0, 150.0, 300.0, 600.0, 1,200.0 μM) from the POC serial dilutions. And PC12 was allowed to grow for another 24 h. After incubation, the cell viability was evaluated using the CCK8 assay. The absorbance was read at 450 nm on a microplate reader. These cell viability experiments were made in triplicate.
For orientation: Formazan colour is commonly taken as a measure of viable cells.

Series [1] relates to middle cerebral artery occlusion (MCAO) rats. In words: Measurement of infarct volume by TTC staining in MCAO rats. It is filed as in vivo. Particulars: 24 h after reperfusion, single iv dose: paeonol and OS 3 mg/kg, POC 4.5 mg/kg, n = 6. Here is the method: Male Sprague Dawley (SD) rats weighing among 220 g-230 g (Anhui Medicine University, Hefei, China; certificate number: SCXK20190,003) were housed under ad libitum access to food and water with a standardized light-dark cycle condition (25 ± 2°C, 12-hour light/dark cycle). All the experimental protocols were performed in accordance with the Institutional Animal Care and Use Committee of Anhui University of Chinese Medicine (Animal ethics number: AHUCM-rats-2019001). We used the minimal number of study animals (n = 6 rats in each group for different experiments). The rats were fastened upon the operating table in a supine position after being anesthetized with 2% pelltobarbitalum natricum (50 mg/kg). After disinfection of the skin within close proximity of the operative region, the right common carotid artery (CCA), external carotid artery (ECA) and internal carotid artery (ICA) were exposed with blunt dissection. The CCA was temporarily ligated and the ECA were permanently ligated ([Liu et al., 2016]). A nylon monofilament surgical thread was introduced into the ICA to block the MCA when the blunted distal end met resistance. After 2 h of occlusion, reperfusion was accomplished to restore blood supply to the MCA area by removing the filament ([Li et al., 2009]; [Zhai et al., 2017]). […] Rats were split randomly into five groups, including the sham, model, paeonol, OS and POC group. After 2 h of reperfusion, the paeonol and OS groups received the drug by intravenous injection at a single dose of 3 mg/kg ([Imamura et al., 2003]; [Park et al., 2010]; [Gai et al., 2019]), which the doses of paeonol and OS uesd previously were benificial in rats and the dose of OS is within the clinical dose range. […] Cerebral infarction volume was determined using TTC staining. […] The infarction and total brain volume were quantified using ImageJ software. The infarct volume was calculated as a ratio of the infarcted tissue relative to the total area of the whole-brain coronal section ([Ye and Gao, 2008]; [Katayama et al., 2017]). […]

For a further series, the system named is IL–6, IL–1β, TNF–α. Description: ELISA assay for inflammatory cytokines in brain tissue of MCAO rats. Format: in vivo. As to conditions: versus model group (p < 0.001), paeonol and OS 3 mg/kg, POC 4.5 mg/kg iv, n = 6. Here is the method:
(§1) Male Sprague Dawley (SD) rats weighing among 220 g-230 g (Anhui Medicine University, Hefei, China; certificate number: SCXK20190,003) were housed under ad libitum access to food and water with a standardized light-dark cycle condition (25 ± 2°C, 12-hour light/dark cycle). All the experimental protocols were performed in accordance with the Institutional Animal Care and Use Committee of Anhui University of Chinese Medicine (Animal ethics number: AHUCM-rats-2019001). We used the minimal number of study animals (n = 6 rats in each group for different experiments). The rats were fastened upon the operating table in a supine position after being anesthetized with 2% pelltobarbitalum natricum (50 mg/kg). After disinfection of the skin within close proximity of the operative region, the right common carotid artery (CCA), external carotid artery (ECA) and internal carotid artery (ICA) were exposed with blunt dissection. The CCA was temporarily ligated and the ECA were permanently ligated ([Liu et al., 2016]). […] According to the manufacturer's instructions, the levels of inflammatory cytokines (IL - 6, IL-1β, TNF-α; R&D Systems, Minneapolis, MN, United States) and TXA2 (Wuhan ColorfulGene Biological Technology Co., LTD) were detected using the commercial ELISA kits. The resultant colored products were measured the absorbance at 450 nm. […]
In general terms: An ELISA detects its analyte on a solid surface through an enzyme-linked reagent.

A further series has as its system TXA2. Description: ELISA assay for TXA2 in brain tissue and blood of MCAO rats. Particulars: paeonol and OS 3 mg/kg, POC 4.5 mg/kg iv, n = 6. It is filed as in vivo. As to the method: as §1

Consider `COc1ccc(C(C)=O)c(OC(=O)C=Cc2ccc(Cn3ccnc3)cc2)c1` [POC, paeonol-ozagrel conjugate], for which the “concentration with no viability loss / no toxic effect” value in the series with PC12 cells was “less than 75 μM”. For the same compound, the “cerebral infarction volume percentage” value in series [1] is given as 11.77% ± 2.53. For the same compound, the “release of inflammatory cytokines (IL–6, IL–1β, TNF–α) in brain tissue” value with IL–6, IL–1β, TNF–α is “can inhibit the expression of three markers of inflammatory cytokines”. In addition, the “levels of TXA2 in blood (plasma)” value with TXA2 (blood/plasma) is “decreasing levels”. The “levels of TXA2 in brain” value in the series on TXA2 (brain tissue) is reported as “decreasing levels”.

The values are drawn from PMC7883289, “Synthesis of Paeonol-Ozagrel Conjugate: Structure Characterization and In Vivo Anti-Ischemic Stroke potential” (Frontiers in Pharmacology, 2021).
